Patent US20250127702A1, “SUNSCREEN COMPOSITION WITH CRYSTALLINE ORGANIC SUNSCREEN FILTERS” (Edgewell Personal Care Brands, LLC, priority 2021, published 2025)

Assay: Amount of solvent needed to solubilize crystalline sunscreen filters
Type: physicochemical
Settings: solvent: butyloctyl salicylate, capric/caprylic triglyceride
Description: This is unexpected since it theoretically takes at least 37 g of the solvent combination to solvate 3 g of bis-ethylhexyloxyphenol methoxyphenyl triazine (a filter that is harder to solubilize than even avobenzone). Similarly, the theoretical amount of octocrylene, homosalate, octisalate, octinoxate, ethylhexyl benzoate and C12-C15 alkyl benzoate to solvate 3 g of bis-ethylhexyloxyphenol methoxyphenyl triazine is 21 g. […] Additional benefits from relatively less solvent content, such as migration benefits, are discussed below.
This is unexpected since it theoretically takes at least 37 g of the solvent combination to solvate 3 g of bis-ethylhexyloxyphenol methoxyphenyl triazine (a filter that is harder to solubilize than even avobenzone) and 42.8 g of the solvent combination to solvate 15.5 g of the crystalline filter combination.

theoretical amount of the solvent combination to solvate 3 g (diisobutyl adipate, diethylhexyl maleate, butyl maleate, butyl oleate, isopropyl myristate): at least 37 g
theoretical amount of the solvent combination to solvate 3 g (dibutyl adipate and/or diisopropyl adipate): at least 37 g
Structure (SMILES): CCCCC(CC)COc1ccc(-c2nc(-c3ccc(OC)cc3)nc(-c3ccc(OCC(CC)CCCC)cc3O)n2)c(O)c1 (centres unmarked) [bis-ethylhexyloxyphenol methoxyphenyl triazine]
